Columns and labels:
[1] = molecular target: SARS-CoV-2 Main Protease (SARS-CoV-2) (UniProt P0DTD1)
Description: Briefly, compounds were seeded into assay-ready plates (Greiner 384PP, cat# 781280) using an ECHO 650T dispenser and DMSO was back-filled for a uniform concentration in assay plates (DMSO concentration < 1%, final volume = 500 nL.). […] After a quick centrifugation step (1000 rpm, 15 s) the plate is incubated for 15 min at room temperature. […] After centrifugation (1000 rpm, 14 s) the reaction is incubated for 10 min (11-mer) or 5 min (37-mer) at room temperature before quenching with 10 % formic acid. The reactions are analysed with MS using RapidFire (RF) 365 high-throughput sampling robot (Agilent) connected to an iFunnel Agilent 6550 accurate mass quadrupole time-of-flight (Q-TOF) mass spectrometer using electrospray. […] Dose response curves uses an 11-point range of 100--0.0017 µM inhibitor concentrations. RapidFire integrator software (Agilent) was used to extract the charged states from the total ion chromatogram data followed by peak integration. For the 11-mer peptide the m/z (+1) charge states of both the substrate (1191.67 Da) and cleaved N-terminal product TSAVLQ (617.34 Da) were used and the 37-mer peptide the m/z (+2) charge states of the substrate (3960.94 Da) and m/z (+1) of the cleaved C-terminal product [sequence] (1125.57 Da). Percentage conversion (product peak integral / (product peak integral + substrate peak integral))*100) and percentage inhibitions were calculated and normalised against DMSO control with deduction of any background signal in Microsoft Excel. IC50s were calculated using Levenberg–Marquardt algorithm used to fit a restrained Hill equation to the dose-response data with both GraphPad PRISM and CDD.

[2] = molecular target: SARS-CoV-2 Main Protease (SARS-CoV-2) (UniProt P0DTD1); remark: listed apart in the source

CCO[C@@H]1C[C@H]1C(=O)Nc1cnccc1C (stereo in doubt)
inhibition ([1]; 50.0 µM): 0% | relative solubility at 20 uM: 1 | relative solubility at 100 uM: 1 | inhibition ([2]; 20.0 µM): -4.13% | inhibition ([2]; 50.0 µM): -3.45%

C=CC(=O)N(C1CCCC(C(C)C)CC1)C(C(=O)NC(C)(C)C)c1cccnc1 (stereo not drawn)
inhibition ([1]; 20.0 µM): 0% | relative solubility at 20 uM: 0.99 | relative solubility at 100 uM: 0.95 | inhibition ([2]; 20.0 µM): -1.08% | inhibition ([2]; 50.0 µM): 8.24%

CC1(C)CC(C(=O)Nc2nncn2C2CC2)c2ccccc2O1 (stereo not drawn)
inhibition ([1]; 50.0 µM): 0% | relative solubility at 20 uM: 1 | relative solubility at 100 uM: 0.98 | inhibition ([2]; 20.0 µM): -0.71% | inhibition ([2]; 50.0 µM): -5.02%

CC(C)(C)NC(=O)C(c1cccnc1)N(C(=O)c1ccco1)c1ccc(C(C)(C)C)cc1 (stereo not drawn)
inhibition ([1]; 50.0 µM): 23.9% | relative solubility at 20 uM: 1.01 | relative solubility at 100 uM: 0.99 | inhibition ([2]; 20.0 µM): 74% | inhibition ([2]; 50.0 µM): 86.6%

C=CC(=O)N(c1ccc(C(C)(C)C)cc1)C(C(=O)Nc1ccc(OC)cc1OC)c1cccnc1 (stereo not drawn)
inhibition ([1]; 20.0 µM): 5.03% | inhibition ([1]; 50.0 µM): 45.9% | relative solubility at 20 uM: 0.98 | relative solubility at 100 uM: 0.84 | inhibition ([2]; 20.0 µM): 48.9% | inhibition ([2]; 50.0 µM): 41.6%

Cc1ccncc1NC(=O)CN(C)S(=O)(=O)c1cccc2cccnc12
inhibition ([1]; 20.0 µM): 0% | inhibition ([1]; 50.0 µM): -0.449% | relative solubility at 20 uM: 0.99 | relative solubility at 100 uM: 1 | inhibition ([2]; 20.0 µM): 43.4% | inhibition ([2]; 50.0 µM): 17.3%

C=CC(=O)N(c1ccc(C(C)(C)C)cc1)C(C(=O)NC(C)(C)C)c1cncc(Br)c1C (stereo not drawn)
inhibition ([1]; 20.0 µM): 12.9% | inhibition ([1]; 50.0 µM): 35.3% | relative solubility at 20 uM: 0.98 | relative solubility at 100 uM: 0.92 | inhibition ([2]; 20.0 µM): -4.32% | inhibition ([2]; 50.0 µM): 7.84%

C=CC(=O)N(c1ccc(C(C)(C)C)cc1)C(C(=O)NCC1CCOC1)c1cccnc1 (stereo not drawn)
inhibition ([1]; 20.0 µM): 1.1% | inhibition ([1]; 50.0 µM): 29.4% | relative solubility at 20 uM: 1 | relative solubility at 100 uM: 0.99 | inhibition ([2]; 20.0 µM): 25.7% | inhibition ([2]; 50.0 µM): 41.3%

O=C1NC(c2cccnc2)C(=O)N1c1cccc(Cl)c1 (stereo not drawn)
IC50 [1]: 57.8 µM | inhibition ([1]; 50.0 µM): 69.6% | relative solubility at 20 uM: 0.85 | relative solubility at 100 uM: 0.91 | inhibition ([2]; 20.0 µM): 18.1% | inhibition ([2]; 50.0 µM): 33.9%

Cc1ccncc1NC(=O)C(C)c1cccc(Cl)c1 (stereo not drawn)
IC50 [1]: 13 µM | inhibition ([1]; 20.0 µM): 20.4% | relative solubility at 20 uM: 1 | relative solubility at 100 uM: 1 | inhibition ([2]; 20.0 µM): 58% | inhibition ([2]; 50.0 µM): 78.7%

Cc1ccncc1CC(=O)Nc1cccc(Cl)c1
IC50 [1]: 26.4 µM | inhibition ([1]; 50.0 µM): 88.6% | relative solubility at 20 uM: 1 | relative solubility at 100 uM: 1 | inhibition ([2]; 20.0 µM): 42.2% | inhibition ([2]; 50.0 µM): 67.4%

CCOCC(=O)NCc1ccc(CNC(=O)Cn2nnc3ccccc32)cc1
inhibition ([1]; 50.0 µM): 0% | relative solubility at 20 uM: 0.99 | relative solubility at 100 uM: 1 | inhibition ([2]; 20.0 µM): 1.82% | inhibition ([2]; 50.0 µM): 1.31%

O=C(Nc1ccc(N(Cc2ccsc2)C(=O)Cn2nnc3ccccc32)cc1)C1CC1
IC50 [1]: 28.4 µM | inhibition ([1]; 50.0 µM): 62.2% | relative solubility at 20 uM: 0.9 | relative solubility at 100 uM: 0.59 | inhibition ([2]; 20.0 µM): 69% | inhibition ([2]; 50.0 µM): 70.2%

Cc1ccncc1NC(=O)Cc1cccc(S(N)(=O)=O)c1
inhibition ([1]; 50.0 µM): 11.5% | relative solubility at 20 uM: 0.99 | relative solubility at 100 uM: 0.99 | inhibition ([2]; 20.0 µM): 11.1% | inhibition ([2]; 50.0 µM): 6.23%

C=CC(=O)Nc1cc(C(=O)NC[C@H](Cc2ccccc2)c2ccccn2)ccc1O (stereo in doubt)
inhibition ([1]; 20.0 µM): 0% | relative solubility at 20 uM: 0.83 | relative solubility at 100 uM: 0.82 | inhibition ([2]; 20.0 µM): 0.684% | inhibition ([2]; 50.0 µM): 9.48%

Cc1cccc(C)c1OCC(=O)NCCc1ccccc1
inhibition ([1]; 20.0 µM): 0% | inhibition ([1]; 50.0 µM): 0% | relative solubility at 20 uM: 1 | relative solubility at 100 uM: 0.98 | inhibition ([2]; 20.0 µM): 1.78% | inhibition ([2]; 50.0 µM): 7.25%

Cc1ccccc1NC1CCN(c2ccc(S(N)(=O)=O)cc2)CC1
inhibition ([1]; 20.0 µM): 25.2% | inhibition ([1]; 50.0 µM): 37.6% | relative solubility at 20 uM: 0.91 | relative solubility at 100 uM: 0.91 | inhibition ([2]; 20.0 µM): 4.98% | inhibition ([2]; 50.0 µM): 7.22%

O=C(NC1CCCCC1NC(=O)c1ccncc1)c1ccccc1 (stereo not drawn)
inhibition ([1]; 20.0 µM): 0% | inhibition ([1]; 50.0 µM): 0% | relative solubility at 20 uM: 1 | relative solubility at 100 uM: 1 | inhibition ([2]; 50.0 µM): -22.4%

C=CC(=O)N1CCN(Cc2cc(Cl)cc3ccccc23)CC1
inhibition ([1]; 20.0 µM): 0% | inhibition ([1]; 50.0 µM): 0% | relative solubility at 20 uM: 0.86 | relative solubility at 100 uM: 0.75 | inhibition ([2]; 50.0 µM): 37.9%

COc1cccc2c1OCC(NC(=O)c1cc(=O)[nH]c3cc(F)ccc13)C2 (stereo not drawn)
inhibition ([1]; 50.0 µM): 0% | relative solubility at 20 uM: 0.9 | relative solubility at 100 uM: 0.86 | inhibition ([2]; 20.0 µM): -1.01% | inhibition ([2]; 50.0 µM): -0.175%

C=CC(=O)N(c1ccc2ncsc2c1)C(C(=O)NC(C)(C)C)c1cccnc1 (stereo not drawn)
inhibition ([1]; 20.0 µM): 0% | relative solubility at 20 uM: 1 | relative solubility at 100 uM: 1 | inhibition ([2]; 20.0 µM): 9.29% | inhibition ([2]; 50.0 µM): 0.772%

O=C(c1cc(=O)[nH]c2ccccc12)N1CCN(c2ccccc2F)CC1
inhibition ([1]; 50.0 µM): 46.4% | relative solubility at 20 uM: 0.98 | relative solubility at 100 uM: 0.99 | inhibition ([2]; 20.0 µM): 50.7% | inhibition ([2]; 50.0 µM): 75.6%

Cc1ccc(-c2cc(C(F)(F)F)nn2-c2ccc(S(N)(=O)=O)cc2)cc1
inhibition ([1]; 20.0 µM): 2.17% | relative solubility at 20 uM: 0.91 | relative solubility at 100 uM: 0.79 | inhibition ([2]; 20.0 µM): 6.23% | inhibition ([2]; 50.0 µM): 11.9%

C=CC(=O)N(c1ccc(C(C)(C)C)cc1)C(C(=O)NC(C)(C)C)c1cnc[nH]1 (stereo not drawn)
inhibition ([1]; 20.0 µM): 0% | inhibition ([1]; 50.0 µM): 0% | relative solubility at 20 uM: 0.99 | relative solubility at 100 uM: 0.89 | inhibition ([2]; 20.0 µM): -20.2% | inhibition ([2]; 50.0 µM): -23.6%

Cc1ccncc1NC(=O)C12CCC(CO1)C2 (stereo not drawn)
inhibition ([1]; 50.0 µM): 0% | relative solubility at 20 uM: 1.01 | relative solubility at 100 uM: 1 | inhibition ([2]; 20.0 µM): -5.84% | inhibition ([2]; 50.0 µM): 9.66%

Cc1ccc(C)c(S(=O)(=O)N2CCN(C(=O)CCl)CC2)c1
inhibition ([1]; 20.0 µM): 90.8% | inhibition ([1]; 50.0 µM): 96.3% | relative solubility at 20 uM: 0.99 | relative solubility at 100 uM: 0.98 | inhibition ([2]; 50.0 µM): 101%

CCN(CC1COc2ccccc2O1)C(=O)c1cc(=O)[nH]c2ccc([N+](=O)[O-])cc12 (stereo not drawn)
inhibition ([1]; 50.0 µM): 0% | relative solubility at 20 uM: 1 | relative solubility at 100 uM: 1 | inhibition ([2]; 20.0 µM): 2.87% | inhibition ([2]; 50.0 µM): -7.35%

Cc1ccnc(C)c1NC(=O)C(C)c1ccc(F)c(F)c1 (stereo not drawn)
inhibition ([1]; 50.0 µM): 0% | relative solubility at 20 uM: 1 | relative solubility at 100 uM: 1 | inhibition ([2]; 20.0 µM): -0.411% | inhibition ([2]; 50.0 µM): -2.87%

Cc1c(C(=O)NC(CC(=O)O)c2cccc(Cl)c2)cnc2ccccc12 (stereo not drawn)
inhibition ([1]; 50.0 µM): 8.52% | relative solubility at 20 uM: 1 | relative solubility at 100 uM: 1 | inhibition ([2]; 20.0 µM): -13% | inhibition ([2]; 50.0 µM): 6.12%

CCCN(C(=O)Cc1cccc(Cl)c1)c1cccnc1
inhibition ([1]; 50.0 µM): 36.2% | relative solubility at 20 uM: 1 | relative solubility at 100 uM: 1 | inhibition ([2]; 20.0 µM): 2.28% | inhibition ([2]; 50.0 µM): 3.25%

N#Cc1ccnc(CNC(=O)Cc2c[nH]c3ncccc23)c1
inhibition ([1]; 20.0 µM): 0% | relative solubility at 20 uM: 0.97 | relative solubility at 100 uM: 0.98 | inhibition ([2]; 20.0 µM): -23.2% | inhibition ([2]; 50.0 µM): -17.2%

C=CC(=O)N(c1ccc(C(C)(C)C)cc1)C(C(=O)NCCOC)c1cccnc1 (stereo not drawn)
inhibition ([1]; 20.0 µM): 25.7% | inhibition ([1]; 50.0 µM): 70.3% | relative solubility at 20 uM: 1 | relative solubility at 100 uM: 1 | inhibition ([2]; 20.0 µM): 35.7% | inhibition ([2]; 50.0 µM): 52.7%

COc1ccnc(NC(=O)Cc2ccc3ccccc3c2)c1
inhibition ([1]; 20.0 µM): 0% | inhibition ([1]; 50.0 µM): 17.1% | relative solubility at 20 uM: 0.95 | relative solubility at 100 uM: 0.91 | inhibition ([2]; 20.0 µM): 3.47% | inhibition ([2]; 50.0 µM): 6.09%

O=C(Cc1cccnc1)Nc1cc(Cl)ccc1O
inhibition ([1]; 50.0 µM): 6.62% | relative solubility at 20 uM: 1.01 | relative solubility at 100 uM: 0.98 | inhibition ([2]; 20.0 µM): -1.54% | inhibition ([2]; 50.0 µM): 23.3%

CC(CCc1ccccc1)N1CCN(C(=O)CCl)CC1 (stereo not drawn)
IC50 [1]: 13.6 µM | inhibition ([1]; 20.0 µM): 62.6% | inhibition ([1]; 50.0 µM): 91.1% | relative solubility at 20 uM: 1 | relative solubility at 100 uM: 1 | inhibition ([2]; 20.0 µM): 45% | inhibition ([2]; 50.0 µM): 60.7%

Cc1ccc(NC(=O)Nc2cccnc2)s1
inhibition ([1]; 20.0 µM): 2.62% | inhibition ([1]; 50.0 µM): 28.6% | relative solubility at 20 uM: 1 | relative solubility at 100 uM: 0.96 | inhibition ([2]; 20.0 µM): 1.9% | inhibition ([2]; 50.0 µM): 11.3%

O=C(CCl)N1CCN(C(c2ccccc2)C2CCOCC2)CC1 (stereo not drawn)
IC50 [1]: 1.69 µM | inhibition ([1]; 50.0 µM): 84.8% | relative solubility at 20 uM: 1 | relative solubility at 100 uM: 0.99 | IC50 [2]: 20.7 µM | inhibition ([2]; 20.0 µM): 80.8% | inhibition ([2]; 50.0 µM): 103%

— the COVID Moonshot data (paper PMC11187573), “Identification of SARS-CoV-2 Mpro inhibitors through deep reinforcement learning for de novo drug design and computational chemistry approaches” (RSC Medicinal Chemistry, 2024)
